US20260070945A1, “MACROCYCLIC IMMUNOMODULATORS” (Bristol-Myers Squibb Company, priority 2022, published 2026)
*1 amine or outer side, *2 acyl side, *3 side chain or, on linkers, in order; H or OH if unused. Where a SMILES comes first, the peptide text is derived from it. Bridges are numbered along the chain shown (N, C = ends). [ ]: non-standard residue; d: D form. The star is where a group is joined. ξ: configuration not given here. Phe(3-CF3) = N[C@@H](Cc1cccc(C(F)(F)F)c1)C(=O)O; Phe(4-COOH) = N[C@@H](Cc1ccc(C(=O)O)cc1)C(=O)O; Bip = N[C@@H](Cc1ccc(-c2ccccc2)cc1)C(=O)O; NH(CH2)14COOH = O=C(O)CCCCCCCCCCCCCCN*; Phe(3-Me) = Cc1cccc(C[C@H](N)C(=O)O)c1; γGlu = O=C(O)[C@H](CCC(=O)[*:2])N[*:1]; NH(CH2)12COOH = O=C(O)CCCCCCCCCCCCN*; Val(3-OH) = CC(C)(O)[C@H](N)C(=O)O; hArg = N=C(N)NCCCC[C@H](N)C(=O)O; 4Pal = N[C@@H](Cc1ccncc1)C(=O)O; Cha = N[C@@H](CC1CCCCC1)C(=O)O; Cit = NC(=O)NCCC[C@H](N)C(=O)O; Ile(3ξ) = CCC(C)[C@H](N)C(=O)O; Thr(3ξ) = CC(O)[C@H](N)C(=O)O; Chg = N[C@H](C(=O)O)C1CCCCC1; 12Ado = NCCCCCCCCCCCC(=O)O; Carboxymethyl = O=C(O)C*; NMeA = CN[C@@H](C)C(=O)O; Orn = NCCC[C@H](N)C(=O)O; Aun = NCCCCCCCCCCC(=O)O; Dab = NCC[C@H](N)C(=O)O; Dap = NC[C@H](N)C(=O)O; AEEA = NCCOCCOCC(=O)O

What follows are molecules tested against T1, PD-1/PD-L1 interaction (PE-labeled human PD-L1-Ig binding to Jurkat cell line over-expressing human PD-1) (Homo sapiens, UniProt Q15116) (assay: Jurkat-PD-1 Cell Binding High-Content Screening Assay (CBA)). Conditions: Jurkat-hPD-1 cells, PE-labeled PD-L1-Ig 20 nM final; read-out: Jurkat HPD1 PDL1 IC50.
T1 construct: expressed in transfected cells; host or cells: Jurkat
In short: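 Read-out: high-content imaging of cell-bound PE fluorescence, with Hoechst 33342 nuclear counterstain after paraformaldehyde fixation. Before labeled ligand (20 nM final, 1 h) was added, compound sat on the cells for 2 h at 37 °C in DMEM/10% FCS.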

T1 sequence (Q15116 25-288): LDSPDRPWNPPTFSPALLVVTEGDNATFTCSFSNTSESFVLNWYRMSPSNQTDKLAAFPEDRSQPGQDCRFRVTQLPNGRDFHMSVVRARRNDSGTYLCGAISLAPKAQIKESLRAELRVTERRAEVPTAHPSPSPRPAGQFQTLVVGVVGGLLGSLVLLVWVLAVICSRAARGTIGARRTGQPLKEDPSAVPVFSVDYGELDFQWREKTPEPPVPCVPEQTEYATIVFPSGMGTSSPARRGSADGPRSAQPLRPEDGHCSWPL

SMILES	IC50
Cc1cccc(C[C@@H]2NC(=O)[C@H](CC(=O)O)NC(=O)[C@H](Cc3ccc(C(=O)O)cc3)NC(=O)[C@H](CCN)NC(=O)CSC[C@@H](C(=O)N[C@@H](CCN)C(=O)NCCCCCCCCCCC(=O)O)NC(=O)[C@H](CO)NC(=O)[C@H](C(C)(C)O)NC(=O)[C@H](CC3CCCCC3)NC(=O)[C@H](CCN)NC(=O)[C@@H](CC(C)C)NC(=O)[C@H](C)N(C)C(=O)[C@H](Cc3ccc(OCC(=O)O)cc3)NC(=O)[C@H](Cc3ccc(-c4ccccc4)cc3)NC(=O)[C@H](C3CCCCC3)NC2=O)c1 [Example 1302] ({CH2CO}-[Dab][Phe(4-COOH)]D[Phe(3-Me)][Chg][Bip]Y(Carboxymethyl)[NMeA][dL][Dab][Cha][Val(3-OH)]SC[Dab][Aun]-OH; thioether N-14)	17.6 nM
Cc1cccc(C[C@@H]2NC(=O)[C@H](CC(=O)O)NC(=O)[C@H](Cc3ccc(OCC(=O)O)cc3)NC(=O)[C@H](C(C)O)NC(=O)CSC[C@@H](C(=O)N[C@@H](CCN)C(=O)NCCOCCOCC(=O)NCCCCCCCCCCC(=O)O)NC(=O)[C@H](CC(N)=O)NC(=O)[C@H](C(C)(C)O)NC(=O)[C@H](CC3CCCCC3)NC(=O)[C@H](CCN)NC(=O)[C@@H](CC(C)C)NC(=O)[C@H](C)N(C)C(=O)[C@H](Cc3ccc(OCC(=O)O)cc3)NC(=O)[C@H](Cc3ccc(-c4ccccc4)cc3)NC(=O)[C@H](Cc3ccc(C(=O)O)cc3)NC2=O)c1 (stereo partly drawn) [Example 2474] ({CH2CO}-[Thr(3ξ)]Y(Carboxymethyl)D[Phe(3-Me)][Phe(4-COOH)][Bip]Y(Carboxymethyl)[NMeA][dL][Dab][Cha][Val(3-OH)]NC[Dab][AEEA][Aun]-OH; thioether N-14)	24.9 nM
CC(C)C[C@H]1NC(=O)[C@H](C)N(C)C(=O)[C@H](Cc2ccc(OCC(=O)O)cc2)NC(=O)[C@H](Cc2ccc(-c3ccccc3)cc2)NC(=O)[C@H](Cc2ccc(OCC(=O)O)cc2)NC(=O)[C@H](Cc2c[nH]c3ccccc23)NC(=O)[C@H](CC(=O)O)NC(=O)[C@H](Cc2ccc(OCC(=O)O)cc2)NC(=O)[C@H]([C@@H](C)O)NC(=O)CSC[C@@H](C(=O)N[C@@H](CCCN)C(=O)NCCOCCOCC(=O)NCCCCCCCCCCC(=O)O)NC(=O)[C@H]([C@@H](C)O)NC(=O)[C@H](C(C)C)NC(=O)[C@H](CC2CCCCC2)NC(=O)[C@H](CC(N)=O)NC1=O [Example 1387] ({CH2CO}-TY(Carboxymethyl)DWY(Carboxymethyl)[Bip]Y(Carboxymethyl)[NMeA][dL]N[Cha]VTC[Orn][AEEA][Aun]-OH; thioether N-14)	401 nM
CC[C@H](C)[C@@H]1NC(=O)[C@H](Cc2ccc(-c3ccccc3)cc2)NC(=O)[C@H](CC(C)C)NC(=O)[C@H](Cc2c[nH]c3ccccc23)NC(=O)[C@H](CC(=O)O)NC(=O)[C@H](Cc2ccc(C(=O)O)cc2)NC(=O)[C@H](Cc2ccc(OCC(=O)O)cc2)NC(=O)CSC[C@@H](C(=O)N[C@@H](CCN)C(=O)NCCOCCOCC(=O)NCCCCCCCCCCC(=O)O)NC(=O)[C@H](CO)NC(=O)[C@H](C(C)C)NC(=O)[C@H](CC2CCCCC2)NC(=O)[C@H](CCN)NC(=O)[C@@H](CC(C)C)NC(=O)[C@H](C)N(C)C1=O [Example 1077] ({CH2CO}-Y(Carboxymethyl)[Phe(4-COOH)]DWL[Bip]I[NMeA][dL][Dab][Cha]VSC[Dab][AEEA][Aun]-OH; thioether N-14)	18.3 nM
CC(=O)NCCCC[C@@H]1NC(=O)[C@H](CC2CCCCC2)NC(=O)[C@H](CCN)NC(=O)[C@@H](CC(C)C)NC(=O)[C@H](C)N(C)C(=O)[C@H](CCCNC(N)=O)NC(=O)[C@H](Cc2ccc(-c3ccccc3)cc2)NC(=O)[C@H](Cc2ccc(O)cc2)NC(=O)[C@H](Cc2cccc(C)c2)NC(=O)[C@H](CC(=O)O)NC(=O)[C@H](Cc2ccc(OCC(=O)O)cc2)NC(=O)[C@H](Cc2ccncc2)NC(=O)CSC[C@@H](C(=O)N[C@@H](CCCN)C(=O)N[C@@H](CO)C(=O)NCCCCCCCCCCCC(=O)O)NC(=O)[C@H](C(C)O)NC1=O (stereo partly drawn) [Example 2411] ({CH2CO}-[4Pal]Y(Carboxymethyl)D[Phe(3-Me)]Y[Bip][Cit][NMeA][dL][Dab][Cha]K(Ac)[Thr(3ξ)]C[Orn]S[12Ado]-OH; thioether N-14)	38.1 nM
CC(C)C[C@@H]1NC(=O)[C@H](Cc2c[nH]c3ccccc23)NC(=O)[C@H](CC(=O)O)NC(=O)[C@H](Cc2ccncc2)NC(=O)[C@H](Cc2ccc(OCC(=O)O)cc2)NC(=O)CSC[C@@H](C(=O)NCCOCCOCC(=O)N[C@@H](CCCN)C(=O)NCCCCCCCCCCC(=O)O)NC(=O)[C@H](CCCNC(N)=O)NC(=O)[C@H](C(C)C)NC(=O)[C@H](CC2CCCCC2)NC(=O)[C@H](CCN)NC(=O)[C@@H](CC(C)C)NC(=O)[C@H](C)N(C)C(=O)[C@H](C(C)C)NC(=O)[C@H](Cc2ccc(-c3ccccc3)cc2)NC1=O [Example 2168] ({CH2CO}-Y(Carboxymethyl)[4Pal]DWL[Bip]V[NMeA][dL][Dab][Cha]V[Cit]C[AEEA][Orn][Aun]-OH; thioether N-14)	9 nM
CC(C)C[C@@H]1NC(=O)[C@H](Cc2c[nH]c3ccccc23)NC(=O)[C@H](CC(=O)O)NC(=O)[C@H](Cc2ccncc2)NC(=O)[C@H](Cc2ccc(OCC(=O)O)cc2)NC(=O)CSC[C@@H](C(=O)N[C@@H](CCCN)C(=O)NCCOCCOCC(=O)NCCCCCCCCCCC(=O)O)NC(=O)[C@H](CCCNC(N)=O)NC(=O)[C@H](C(C)C)NC(=O)[C@H](CC2CCCCC2)NC(=O)[C@H](CN)NC(=O)[C@@H](CC(C)C)NC(=O)[C@H](C)N(C)C(=O)[C@H](C(C)C)NC(=O)[C@H](Cc2ccc(-c3ccccc3)cc2)NC1=O [Example 2166] ({CH2CO}-Y(Carboxymethyl)[4Pal]DWL[Bip]V[NMeA][dL][Dap][Cha]V[Cit]C[Orn][AEEA][Aun]-OH; thioether N-14)	24.7 nM
CC(C)C[C@@H]1NC(=O)[C@H](Cc2c[nH]c3ccccc23)NC(=O)[C@H](CC(=O)O)NC(=O)[C@H](Cc2ccc(OCC(=O)O)cc2)NC(=O)[C@H](CCCCNC(=N)N)NC(=O)CSC[C@@H](C(=O)NCC(=O)NCCOCCOCC(=O)N[C@@H](CN)C(=O)NCCCCCCCCCCC(=O)O)NC(=O)[C@H](CCCNC(N)=O)NC(=O)[C@H](C(C)C)NC(=O)[C@H](CC2CCCCC2)NC(=O)[C@H](CCN)NC(=O)[C@@H](CC(C)C)NC(=O)[C@H](C)N(C)C(=O)[C@H](C(C)C)NC(=O)[C@H](Cc2ccc(-c3ccccc3)cc2)NC1=O [Example 2178] ({CH2CO}-[hArg]Y(Carboxymethyl)DWL[Bip]V[NMeA][dL][Dab][Cha]V[Cit]CG[AEEA][Dap][Aun]-OH; thioether N-14)	8.5 nM
Cc1cccc(C[C@@H]2NC(=O)[C@H](CC(=O)O)NC(=O)[C@H](Cc3ccc(OCC(=O)O)cc3)NC(=O)[C@H](Cc3ccc(OCC(=O)O)cc3)NC(=O)CSC[C@@H](C(=O)N[C@@H](CO)C(=O)NCCCCCCCCCCC(=O)O)NC(=O)[C@H](C(C)O)NC(=O)[C@H](CN)NC(=O)[C@H](CC3CCCCC3)NC(=O)[C@H](CCN)NC(=O)[C@@H](CC(C)C)NC(=O)[C@H](C)N(C)C(=O)[C@H](CCCNC(=N)N)NC(=O)[C@H](Cc3ccc(-c4ccccc4)cc3)NC(=O)[C@H](C(C)C)NC2=O)c1 (stereo partly drawn) [Example 2384] ({CH2CO}-Y(Carboxymethyl)Y(Carboxymethyl)D[Phe(3-Me)]V[Bip]R[NMeA][dL][Dab][Cha][Dap][Thr(3ξ)]CS[Aun]-OH; thioether N-14)	37.1 nM
COC[C@@H]1NC(=O)CSC[C@@H](C(=O)N[C@@H](CCN)C(=O)NCCCCCCCCCCCCC(=O)O)NC(=O)[C@H](CCC(=O)O)NC(=O)[C@H](C(C)C)NC(=O)[C@H](CC2CCCCC2)NC(=O)[C@H](CCN)NC(=O)[C@@H](CC(C)C)NC(=O)[C@H](C)N(C)C(=O)[C@H](CCCNC(N)=O)NC(=O)[C@H](Cc2ccc(-c3ccccc3)cc2)NC(=O)[C@H](Cc2ccc(C(=O)O)cc2)NC(=O)[C@H](Cc2cccc(C(F)(F)F)c2)NC(=O)[C@H](CC(=O)O)NC(=O)[C@H](Cc2ccc(OCC(=O)O)cc2)NC1=O [Example 1139] ({CH2CO}-S(Me)Y(Carboxymethyl)D[Phe(3-CF3)][Phe(4-COOH)][Bip][Cit][NMeA][dL][Dab][Cha]VEC[Dab]-{NH(CH2)12COOH}; thioether N-14)	12.7 nM

Same assay, conditions: PE-labeled PD-L1-Ig 20 nM final, Jurkat-hPD-1 cells; read-out: Jurkat HPD1 PDL1 IC50

SMILES	IC50
Cc1cccc(C[C@@H]2NC(=O)[C@H](CC(=O)O)NC(=O)[C@H](Cc3ccc(O)cc3)NC(=O)[C@H]([C@@H](C)O)NC(=O)CSC[C@@H](C(=O)N[C@@H](CCN)C(=O)NCCOCCOCC(=O)NCCCCCCCCCCCC(=O)O)NC(=O)[C@H](CCC(=O)O)NC(=O)[C@H](C(C)C)NC(=O)[C@H](CC3CCCCC3)NC(=O)[C@H](CCN)NC(=O)[C@@H](CC(C)C)NC(=O)[C@H](C)N(C)C(=O)[C@H](Cc3ccc(OCC(=O)O)cc3)NC(=O)[C@H](Cc3ccc(-c4ccccc4)cc3)NC(=O)[C@H](Cc3ccc(OCC(=O)O)cc3)NC2=O)c1 [Example 2667] ({CH2CO}-TYD[Phe(3-Me)]Y(Carboxymethyl)[Bip]Y(Carboxymethyl)[NMeA][dL][Dab][Cha]VEC[Dab][AEEA][12Ado]-OH; thioether N-14)	0.3 nM
CCC(C)[C@@H]1NC(=O)[C@H](Cc2ccc(-c3ccccc3)cc2)NC(=O)[C@H](C(C)C)NC(=O)[C@H](Cc2c[nH]c3ccccc23)NC(=O)[C@H](CC(=O)O)NC(=O)[C@H](Cc2ccc(C(=O)O)cc2)NC(=O)[C@H](Cc2cnc[nH]2)NC(=O)CSC[C@@H](C(=O)N[C@@H](CCN)C(=O)NCCOCCOCC(=O)N[C@@H](CCC(=O)NCCOCCOCC(=O)NCCCCCCCCCCCCCCC(=O)O)C(=O)O)NC(=O)[C@H](CCC(=O)O)NC(=O)[C@H](C(C)(C)O)NC(=O)[C@H](CC2CCCCC2)NC(=O)[C@H](CCN)NC(=O)[C@@H](CC(C)C)NC(=O)[C@H](C)N(C)C1=O (stereo partly drawn) [Example 2635] ({CH2CO}-H[Phe(4-COOH)]DWV[Bip][Ile(3ξ)][NMeA][dL][Dab][Cha][Val(3-OH)]EC[Dab][AEEA][γGlu][AEEA]-{NH(CH2)14COOH}; thioether N-14)	105 nM
